# Data published in paper PMC3472544, “Glycosaminoglycan analogs as a novel anti-inflammatory strategy” (Frontiers in Immunology, 2012).
# “Also recorded” adds a separate entry of the source.
# Columns and labels:
# CCL5 binding to heparin = biological target: T1, CCL5 binding to heparin (Homo sapiens, UniProt P13501); assay: Immobilized heparin competition binding assay ([125I]-CCL5 on heparin-Sepharose beads); conditions: [125I]-CCL5 0.05 nM, 4 h, read-out: IC50 for the inhibition of CCL5 binding to heparin
# T1 sequence (P13501 24-91): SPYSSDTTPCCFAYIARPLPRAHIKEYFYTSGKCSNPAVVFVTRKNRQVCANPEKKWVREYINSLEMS
# Description: Competition experiments were performed as described elsewhere (Severin et al., [2010]). Briefly, heparin-Sepharose beads (Sepharose beads or binding buffer as a background control) and increasing amounts of antagonist were added to each well of a 96 well filter plate. [^125I]-CCL5, was added last, to reach a final concentration of 0.05 nM. The plates were incubated on a shaker at room temperature for 4 h. Each experiment was performed in triplicate, and the results are given as the mean of the three assays.
# CCR5 [1] = biological target: T2, CCR5 (Homo sapiens, UniProt P13501); assay: Equilibrium competition receptor binding assay (SPA), [125I]-CCL5 on CHO/CCR5 membranes; conditions: SPA-based equilibrium competition binding
# T2 construct: expressed in transfected cells; host or cells: CHO
# T2 sequence (P13501 24-91): T1 sequence (P13501 24-91)
# Description: Briefly, serial dilutions of the compounds were prepared in binding buffer (50 mM TrisHCl, pH 7.2, containing 1 mM CaCl2, 5 mM MgCl2, and 0.5% BSA). […] The plates were incubated for 4 h. Radioactivity was counted with a beta counter for 1 min/well and the data analyzed using Graphpad Prism software. The radioligand was stored at −20°C and was used until the cpm of bound chemokine was ≥ 300 cpm.
# CCL5 = biological target: T3, CCL5 (Homo sapiens, UniProt P13501); assay: NMR-based CCL5 binding, Kd from 15N-HSQC titration
# T3 construct: made in house
# T3 sequence (P13501 24-91): T1 sequence (P13501 24-91)
# Description: These molecules were charged, and contained multiple acid groups, such as carboxylates and sulfonates. In addition, many of the molecules were aromatic, to provide some hydrophobicity. The library was pooled into sets containing five compounds and these pools mixed at 200 μM, with an equal concentration of CCL5 at 30°C, and a heteronuclear single quantum coherence (HSQC) spectrum recorded immediately. For pools that induced significant change in the protein chemical shifts, a second round of screening was performed in which each of the five compounds was added individually to the protein solution. […] Dissociation constants were obtained by fitting the recorded chemical shift as a function of increasing ligand concentrations with: (1) δobs=δf+LbΔb −f in which δobs is the observed chemical shift at each point of the titration curve, δf is the chemical shift of the free protein and Δb − f is the difference in chemical shift between free and fully complexed protein.
# CCR1 (Homo sapiens) = biological target: T4, CCR1 (Homo sapiens); assay: Equilibrium competition receptor binding assay (SPA), [125I]-CCL5 on CHO/CCR1 membranes; conditions: [125I]-CCL5 0.1 nM, CHO/CCR1 membranes, SPA; read-out: IC50 for the inhibition of CCL5 binding to CCR1
# T4 construct: expressed in transfected cells; host or cells: CHO
# Description: (§1) The assays were carried out on membranes from CHO transfectants expressing CCR1 or CCR5, as described previously (Severin et al., [2010]). Briefly, serial dilutions of the compounds were prepared in binding buffer (50 mM TrisHCl, pH 7.2, containing 1 mM CaCl2, 5 mM MgCl2, and 0.5% BSA). Equal volumes of membrane preparation at 80 μg/ml and scintillation proximity assay (SPA) beads were mixed before adding them to a 96 well filter plate, giving a final membrane concentration in the assay of 20 μg/ml. ^125I labeled chemokines were dissolved in binding buffer at a concentration of 0.4 nM. The assay was started by the addition of 25 μL [^125I]-CCL5 to give a concentration of 0.1 nM, in a final assay volume of 100 μL. The plates were incubated for 4 h. Radioactivity was counted with a beta counter for 1 min/well and the data analyzed using Graphpad Prism software. The radioligand was stored at −20°C and was used until the cpm of bound chemokine was ≥ 300 cpm.
# CCR1 [2] = biological target: T5, CCR1 (Homo sapiens, UniProt P32246); assay: Equilibrium competition receptor binding assay with CCL3 as the ligand, CCR1; conditions: data not shown
# T5 construct: expressed in transfected cells; host or cells: CHO
# T5 sequence (P32246 1-355): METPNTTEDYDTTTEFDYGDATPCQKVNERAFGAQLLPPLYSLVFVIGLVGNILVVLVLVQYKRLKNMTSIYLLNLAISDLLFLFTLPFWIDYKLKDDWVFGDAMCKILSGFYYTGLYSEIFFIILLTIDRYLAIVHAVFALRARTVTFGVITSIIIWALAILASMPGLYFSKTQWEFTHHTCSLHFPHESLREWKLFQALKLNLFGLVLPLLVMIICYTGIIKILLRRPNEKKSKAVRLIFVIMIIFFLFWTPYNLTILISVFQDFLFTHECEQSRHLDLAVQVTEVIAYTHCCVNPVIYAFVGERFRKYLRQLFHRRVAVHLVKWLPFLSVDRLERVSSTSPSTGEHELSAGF
# Description: as §1, with “The assay was started by the addition of 25 μL [^125I]-CCL5 to give a concentration of 0.1 nM, in a final assay volume of 100 μL.” left out
# (§2) A study of the relative affinity of Molecule 1 toward CCL5 and heparin molecules was first evaluated by competition experiments in which CCL5, immobilized on heparin beads, was competed off the beads by increasing concentrations of Molecule 1. […] Since the principal GAG binding motif of CCL5, the BBXB motif on the 40s loop, plays a role in binding to CCR1, we determined the capacity of Molecule 1 to inhibit the binding of the chemokine CCL5 to its receptors CCR1 and CCR5 using equilibrium competition binding with a SPA-based assay.
# [3] = tested on: CCL5-induced cellular recruitment into the peritoneal cavity; assay: CCL5-induced peritoneal cellular recruitment; type: in vivo, mouse; conditions: CCL5 binders administered 30 min prior to CCL5 (Figure 4A, B)
# CCR5 [4] = biological target: T6, CCR5 (Homo sapiens, UniProt P51681); assay: Equilibrium competition receptor binding assay with CCL3 as the ligand, CCR5; conditions: data not shown
# T6 construct: expressed in transfected cells; host or cells: CHO
# T6 sequence (P51681 whole entry, species assumed): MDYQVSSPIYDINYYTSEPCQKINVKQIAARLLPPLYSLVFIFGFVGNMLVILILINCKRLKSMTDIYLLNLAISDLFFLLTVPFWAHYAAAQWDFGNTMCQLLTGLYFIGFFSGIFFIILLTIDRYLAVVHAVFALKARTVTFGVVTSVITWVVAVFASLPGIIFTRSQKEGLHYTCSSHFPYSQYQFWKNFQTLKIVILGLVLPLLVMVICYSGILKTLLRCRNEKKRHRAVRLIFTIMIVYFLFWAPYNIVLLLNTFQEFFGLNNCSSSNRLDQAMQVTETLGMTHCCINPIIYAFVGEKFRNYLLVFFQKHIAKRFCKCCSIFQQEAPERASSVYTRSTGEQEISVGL
# Description: as §1, with “The assay was started by the addition of 25 μL [^125I]-CCL5 to give a concentration of 0.1 nM, in a final assay volume of 100 μL.” left out
# as §2
# [5] = tested on: paw thickness after SRBC challenge; assay: Delayed-type hypersensitivity (DTH) model, SRBC; type: in vivo, BALB/c mice
# Description: Female BALB/c mice were immunized with 2 × 10^6 sheep red blood cells (SRBC) by subcutaneous route (s.c.) at the base of the tail. Five days later mice were challenged with an s.c. injection of 2 × 10^6 SRBC into the softpaw of the left hindpaw. The paw thickness was measured 21 h later and the difference calculated based on values obtained before challenge. MHxS, NisS, and StachS were injected s.c. at a dose of 10 mg/kg, 30 min before and 8 h after challenge. Vehicle was 0.02% BSA diluted in PBS. The reference compound, dexamethasone, was diluted in saline and administered by oral gavage 30 min before challenge. Group sizes were 6 for sham and 8 for all other groups.
# Figure 5 Inhibition of delayed-type hypersensitivity. Immunization was performed by s.c. administration of SRBC, followed by a challenge in the hindpaw 5 days later. The persulfated oligosaccharides (10 mg/kg) were administered 30 min prior and 8 h after the challenge. Dexamethasone was used as a positive control, and paw thickness was measured 21 h following the challenge. The statistical differences vs. the control group (mice challenged with SRBC and treated with vehicle for the compounds 0.02% BSA diluted in PBS) are shown whenever present and indicated by ^*P <0.05>; ^***P < 0.001. TEXT PRINTED IN THE PICTURE: dexamethasone: 47% *** | MHxS: 39% *** | NisS: 20% * | StachS: 41% ***
# [6] = tested on: citrated plasma from healthy human blood donors; assay: Anti-coagulation assay: Activated Partial Thromboplastin Time (APTT)
# Description: Activated Partial Thromboplastin Time (APTT) assays were performed by GlycoMar. 10 mg/ml stock solutions of NisS, StachS, and MHxS, were prepared using dH2O and stored at −20°C until use. Samples were tested at 1 mg/ml. All further dilutions were in dH2O. Prior to each assay, a calibration curve of heparin ranging from 0 to 10 IU/ml was prepared using 5th International Standard Heparin. (GlycoMar ID:92, batch 97/578, Expiry 21SEP10). Fresh human blood from healthy human blood donors was collected into S-Monovette Coagulation tubes from Sarstedt. Nine parts of freshly drawn venous blood were collected into one part trisodium citrate (0.106 M). Plasma was obtained by centrifugation at 1500 × g for 10 min. Each of the carbohydrate samples was diluted and tested at 1 mg/ml in the first instance. MHxS was subsequently tested at 0.1 mg/ml to be within the time frame of the standard curve. The APTT assay was run on an ACL 9000 Coagulation Analyzer. The coagulation time of HemosIL Normal Control (cat no. 0020003110) was checked. Samples, standards and controls were mixed 1:10 with citrated plasma in a test tube, loaded into the ACL 9000 carousel and analyzed using the extended APTT run program.
# [7] = tested on: thioglycollate-induced cellular recruitment into the peritoneal cavity; assay: Thioglycollate-induced peritoneal cellular recruitment; type: in vivo, C3H/Hen mice; conditions: thioglycollate i.p.; compound i.p. 30 min before and 24 h later; cells counted at 48 h (Figure 4C, D)
# Description: CCL5-induced peritoneal recruitment was performed as described (Johnson et al., [2004]). Thioglycollate-induced cellular recruitment was mediated by the administration of 40 mL/kg of 3% thioglycollate i.p. in 7- to 8-week-old female C3H/Hen mice (JANVIER). Sham mice were injected with 40 mL/kg of NaCl (0.9%, LPS free). Saline (vehicle, control group) or Maltohexaose Sulfate at doses ranging from 1 to 0.01 mg/kg diluted in a volume ratio of 10 mL/kg and were administered i.p. 30 min before the thioglycollate stimulus, and 24 h later. An additional group of mice was injected with a single dose of 3 mg/kg dexamethasone 1 h before challenge as a reference control. Mice were sacrificed 48 h post-thioglycollate injection, the peritoneal cavity was washed twice with 5 mL of […] EDTA solution in PDB, pH 7.4. The peritoneal lavage fluid was centrifuged and resuspended in 1 mL of the solution and recruited cells were counted with a cell counter (Beckman-Coulter, ACT5Diff AD32097).
# Figure 4 Inhibition of peritoneal cellular recruitment. Cellular recruitment into the peritoneal cavity was induced by CCL5 (A) and (B) and inhibited by different doses of CCL5 binders administered 30 min prior to the CCL5 administration. […]
# [8] = tested on: leukocyte recruitment into the synovial (knee) cavity; assay: Antigen-induced arthritis (AIA) model, mBSA; type: in vivo, mice; conditions: 50 μg s.c. immediately after mBSA; cells counted at 24 h
# Description: Induction of disease was performed by injection of 10 μg methylated bovine serum albumin (mBSA) as a 10 μL injection into the synovial cavity. Test compounds, at a total dose of 50 μg were injected in a total volume of 200 μL subcutaneously immediately after mBSA administration. Group sizes were 4–6 animals. Total leukocytes (A), neutrophils (B), and mononuclear cells (C) in the synovial cavity were enumerated 24 h after mBSA injection (Sachs et al., [2011]).
# Figure 6 Inhibition of antigen induced arthritis. An injection of mBSA into the synovial cavity was used to induce disease. 50 μg of the inhibitors were administered s.c. immediately after the mBSA injection, and the cells in the synovial cavity were enumerated 24 h later. (A) Total cells; (B) […]; (C) mononuclear cells. ^*P < 0.05.
# CCR1 [9] = biological target: T7, CCR1 (Homo sapiens, UniProt P13501); assay: Equilibrium competition receptor binding assay (SPA), [125I]-CCL5 on CHO/CCR1 membranes; conditions: relative to Molecule 1
# T7 construct: expressed in transfected cells; host or cells: CHO
# T7 sequence (P13501 24-91): T1 sequence (P13501 24-91)
# Description: as §1
IC50 (CCL5 binding to heparin),effect on CCL5 binding to CCR5 (CCR5 [1]),"Kd (CCL5; determined by protein NMR, pH 3.2, 30°C)",IC50 (CCR1 (Homo sapiens)),competition of CCL3 binding to CCR1 (CCR1 [2]),competition of CCL3 binding to CCR5 (CCR5 [4]),tighter interaction than Molecule 1 in the CCR1 binding assay (CCR1 [9]),Compound,"selective binding to CCL5 in the NMR screen (CCL5; 206 compound library, 200 μM, HSQC chemical shift changes)",cell recruitment to the peritoneum [3],reduction of paw thickness compared with dexamethasone ([5]; 10 mg/kg s.c. at −30 min and +8 h),"inhibition of paw thickness, dose-response ([5]; 0.1, 1 and 10 mg/kg at −30 min and +8 h post-challenge, data not shown)","inhibition of paw swelling ([5]; oligosaccharides 10 mg/kg s.c. at −30 min and +8 h, dexamethasone by oral gavage 30 min before challenge, paw thickness at 21 h)","Anticoagulant activity (heparin-equivalent) ([6]; calibrated against heparin standard curve, samples at 1 mg/ml (MHxS 0.1 mg/ml))",anticoagulant potency reduced compared to heparin ([6]; relative to heparin),cell recruitment to the peritoneal cavity [7],mononuclear cell recruitment into the knee cavity [8],neutrophil recruitment into the knee cavity [8]
320 µM,no effect,20 µM,6.7 µM,no competition,no competition,,O=C(O)c1cc(S(=O)(=O)O)ccc1O [Molecule 1],confirmed to be selectively binding to CCL5,inhibited cell recruitment to the peritoneum in a dose dependent manner,,,,,,,,
1.27 ± 0.67 µM,,,,,,,persulfated MHx [MHxS],,,comparable effect,statistically significant inhibitions were shown only for the highest dose,39%,11.87 ± 3.07 IU/mg,12 fold,"enhanced recruitment, albeit moderately",statistically significant reduction,statistically significant reduction
,,,2.5 µM,,,3 fold,"O=C(CCCCCCCCCCNS(=O)(=O)c1ccc(O)c(C(=O)O)c1)Nc1cc(C(=O)O)c(O)c(S(=O)(=O)O)c1 [Molecule 3, 5-[(11-{[(3-carboxy-4hydroxyphenyl)sulfonyl]amino}undecanoyl)amino]-2-hydroxy-3-sulfobenzoic acid]",,"enhancement of cell recruitment; also recorded: no inhibition of recruitment, rather an enhancement at the highest dose",,,,,,,,
